# Columns and labels:
# [1] = system: beta2-microglobulin deficient (b2m−/−) mice; experiment: Correction of hyperferremia in beta2-microglobulin deficient mice; format: in vivo, mouse; conditions: for Serum Iron Reduction (%): 60 mg/kg oral, 3 hours (##)
# Protocol: Female and male homozygous b2m−/− mice are supplied from Jackson Laboratories (B6.129P2-B2mtm1Unc/J, Stock Number: 002087) at age of 6 to 7 weeks and fed standard diet (Harlan Provimi Kliba 3436) ad libitum. Age and gender matched WT C57BL/6 mice are supplied by Charles River. To study the acute effects of ferroportin (Fpn) inhibitors in iron overload b2m−/− mice are treated with compounds or the corresponding amount of vehicle at a volume of 10 ml/kg body weight. Fpn inhibitor compounds are formulated in 0.5% methylcellulose/water or 20% cremophor EL/water and dosed p.o. in mice at 50 mg/kg body weight. WT controls received only vehicle. Three hours later, mice are pre-terminally anesthetized in isoflurane chambers and blood is collected by retro-orbital bleeding. Mice are sacrificed by cervical dislocation and spleens, livers and duodena are harvested and used for biomarker analysis. All experiments are performed in compliance with license approved by the responsible veterinarian authorities. Serum is isolated by centrifugation of blood into gel-containing microtainers (BD Biosciences) and serum iron is determined by the MULTIGENT Iron assay (Abbott Diagnostics, Cat. 6K95). Four to nine mice per group are used and one-way ANOVA with Bonferroni's multiple comparison test is applied to analyze the statistical differences between the experimental groups.
# Blood is collected 1 (#) or 3 (##) hours after oral administration of the indicated doses of Fpn inhibitors to beta2-microglobulin deficient mice and serum iron concentrations are measured. Relative reduction (%) of serum iron levels are shown, which were calculated by subtracting the average of serum iron values of animals dosed with the Fpn inhibitor from that of vehicle-treated animals. The difference in average serum iron values between vehicle and compound treated groups was then divided by the average of serum iron of the vehicle control group and listed as percentage. Values are listed separately for female (♀) and male (♂) animals, because a marked sex-dependent difference in efficacy was noted. Statistically significant (2-way ANOVA with Bonferroni post test) differences observed between compound-treated and vehicle-treated groups are indicated (*** p<0.001; ** p<0.01, p<0.05).
# ferroportin (Fpn) = target: T1, ferroportin (Fpn) (Mus musculus, UniProt Q9JHI9); experiment: Ferroportin Ubiquitination and Degradation (J774, immunoprecipitation, Western blot); format: cell-based; design: key: +: comparable to hepcidin; −: no effect; +/−: intermediate effect; conditions: J774 cells, ca. 10-fold IC50 concentration, visual inspection of Western blots
# T1 construct: endogenous in cells; host or cells: J774 mouse macrophage cell line (DSMZ, Cat. ACC170), induced with 200 uM Fe(III)-NTA
# T1 sequence (Q9JHI9 1-570): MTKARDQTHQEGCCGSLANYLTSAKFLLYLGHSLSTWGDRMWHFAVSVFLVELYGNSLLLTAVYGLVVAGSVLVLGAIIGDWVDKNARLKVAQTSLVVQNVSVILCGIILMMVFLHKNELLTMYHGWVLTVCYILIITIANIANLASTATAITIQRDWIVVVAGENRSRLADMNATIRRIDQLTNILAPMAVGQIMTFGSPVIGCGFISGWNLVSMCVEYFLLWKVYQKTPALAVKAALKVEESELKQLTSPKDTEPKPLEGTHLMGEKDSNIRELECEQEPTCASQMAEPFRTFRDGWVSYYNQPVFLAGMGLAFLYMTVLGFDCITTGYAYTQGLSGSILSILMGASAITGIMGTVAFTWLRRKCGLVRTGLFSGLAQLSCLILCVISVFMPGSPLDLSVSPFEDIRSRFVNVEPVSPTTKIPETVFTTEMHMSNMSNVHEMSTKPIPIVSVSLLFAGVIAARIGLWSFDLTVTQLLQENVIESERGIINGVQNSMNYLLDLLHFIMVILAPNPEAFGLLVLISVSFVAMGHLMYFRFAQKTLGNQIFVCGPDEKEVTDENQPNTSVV
# Protocol: Exposure of cells expressing ferroportin (Fpn) to hepcidin is known to trigger ubiquitination and subsequent internalization and degradation of Fpn (Qiao, 2012). The potential of Fpn inhibitors to induce Fpn ubiquitination and degradation is investigated with an immunoprecipitation assay using the J774 mouse macrophage cell line which expresses Fpn upon treatment with iron.
# Cells are incubated with synthetic human hepcidin (Bachem, Cat. H-5926) or Fpn inhibitor compounds for 10 min or 120 min. Cells are washed and lysed with ice-cold lysis buffer (Pierce, Life Technoligies, Cat. 87787) including 1×HALT protease inhibitor cocktail (Life technologies, Cat. 78429) and 10 mM iodoacetamide (Sigma, Cat. 16125) to stabilize ubiquitinated proteins. Immunoprecipitation is done using the Pierce Classic IP Kit (Life Technologies, Cat. 26146) following the manufacturer's protocol. Briefly, 2 mg protein in 1.25 ml IP lysis buffer is incubated by mixing for 1 h at 4° C. with control agarose beads to pre-clear the lysate and reduce nonspecific signal. Unbound lysate is then incubated overnight with 12 μg per reaction of the affinity purified anti-Fpn antibody F308 that was raised against a GST fusion protein of mouse Fpn amino acids 224-308. Immune complexes are captured by pipetting 14 μl settled Pierce Protein A/G Plus Agarose beads (Life Technologies, Cat. 20423) per reaction and the slurry is incubated for 1.5 h at 4° C. with gentle end-over-end mixing. The beads are washed and immune complexes are eluted directly with 75 μl SDS NuPAGE LDS sample buffer (Life Technologies, Cat. NP0007) containing DTT (Life Technologies, Cat. NP0009).
# After immunoprecipitation samples are analyzed by Western blotting using a rabbit anti-mouse MTP1 antiserum (Alpha Diagnostic International, Cat. MTP11-A) and a mouse anti-mono- and polyubiquitinylated conjugates monoclonal antibody (Enzo Lifesciences, Cat. BML-PW8810) for detection of ferroportin and ubiquitin, respectively. Mouse monoclonal anti-rabbit IgG light chain (Abcam, Cat. ab99697) and anti-mouse IgG H&L (Abcam, Cat. ab6789) HRP conjugates are used as secondary antibodies.
# Hbb th3/+ mice = experiment: Mouse model of β-thalassemia intermedia (Hbb th3/+ mice); format: in vivo; conditions: for Decrease in RDW by 20/60 mg/kg compound / Decrease in serum iron by 20/60 mg/kg compound: % change to vehicle; for Correction of anemia at day 20-48 by 20/60 mg/kg: hemoglobin difference to vehicle; for Decrease in serum iron by 20/60 mg/kg compound: dosed for 3 h
# Protocol: The efficacy of Fpn inhibitors is investigated using a mouse model of transfusion-independent β-thalassemia. Mice with heterozygous deletion of β 1 and β 2 globin genes (called Hbb th3/+ mice) develop transfusion-independent anemia, ineffective erythropoiesis, splenomegaly and secondary iron overload in spleen, liver and kidneys. […] Hbb th3/+ mice are dosed twice daily with either compound at 20 or 60 mg/kg or with methylcellulose (10 ml/kg, Sigma, Cat. 274429) as a vehicle. Between both doses mice have access to drinking water supplemented with 1 mM ^58Fe(II)-sulfate (Vifor Pharma, Batch No. ROR 3096) and 10 mM ascorbic acid (Sigma, Cat. 795437) for 6 h. The concentration of ^58Fe(II)-Sulfate supplied in the drinking water is adjusted to substitute for intake of standard rodent diet with iron content of 250 ppm. Water without ^58Fe(II)-Sulfate and ascorbic acid is provided during the remaining 18 h. Dosing of Fpn inhibitors or vehicle followed by exposure to iron-containing water is repeated for 20 to 46 days in individual experiments.
# Additional hematologic parameters are measured in terminal blood using automated blood cell analyzer.
# The inefficient erythropoiesis of Hbb th3/+ mice causes excessive proliferation of erythroid precursors in spleen, leading to splenomegaly.
# Elevated erythropoietin levels in Hbb th3/+ mice induce overexpression of erythroferrone, an erythroid regulator hormone known to suppress hepcidin (Kautz L. et al, Nat. Genet., 2014). […] Erythroferrone is produced by erythrocyte precursors proliferating massively in spleens of Hbb th3/+ mice as a consequence of extramedullar erythropoiesis.
# Increased iron demand due to inefficient erythropoiesis and chronically low hepcidin levels in patients with thalassemia causes organ iron loading and associated morbidities, such as hepatocellular carcinoma and heart failure (Rivella S. Haematologica, 2015). Hbb th3/+ mice absorb excessive amounts of iron as a consequence of inadequately low hepcidin levels relative to the high iron content in liver, spleen and kidney and increased ferroportin expression in duodenum (Gardenghi S., Blood, 2007).
# Additionally, reactive oxygen species (ROS) are detected in bone marrow cells using a fluorescent indicator, CM-H2DCFDA (Thermo Fisher Scientific, Cat. C6827).
# Data are expressed as difference to the vehicle control group for hemoglobin and as % change to the vehicle control group for all other parameter shown
# [2] = Approximate solubility of the starting compound in solvents and solvent mixtures; format: physicochemical; conditions: thermodynamic from solid
# Protocol: Approximate solubilities were determined by incremental addition of solvent to about 10 mg the compound. […] Due to the experimental error inherent in this method, the solubility values are intended to be regarded as rough estimates and are to be used solely for the design of crystallization experiments.
# Approximate solubilities were determined by incremental addition of solvent to about 10 mg of the compound. […] Due to the experimental error inherent in this method, the solubility values were regarded as rough estimates and were only used for the design of crystallization experiments.
# The approximate solubility of SP236-FB-P1 was determined in a number of different solvents and solvent mixtures to help guide the salt/co-crystal experiments.
# naïve WT C57BL/6 mice = experiment: Hypoferremia in naïve mice; format: in vivo, mouse; conditions: injection in WT naïve mice, maximal effect at 3-4 hours post treatment
# Protocol: Injection of synthetic hepcidin in wild-type (WT) naïve mice results in a reduction of serum iron levels (40-50% from the vehicle control) with a maximal effect at 3-4 hours post treatment (Rivera, 2005; FIG. 12A).
# Female C57BL/6 mice (Janvier, France) at age of 9 weeks are fed a standard diet (Harlan Provimi Kliba 3436) and treated per os (p.o.) with compounds or the corresponding amount of vehicle at a volume of 10 ml/kg body weight. Fpn inhibitors are formulated in 0.5% methylcellulose/water or 20% cremophor EL/water and dosed p.o. in mice at 10, 30 or 100 mg/kg body weight. Three hours later, mice are pre-terminally anesthetized in isoflurane chambers and blood is collected by retro-orbital bleeding. Mice are sacrificed by cervical dislocation and spleens, livers and duodena were harvested and used for biomarker analysis. All experiments are conducted in compliance with the license approved by the responsible veterinarian authorities. Serum is isolated by centrifugation of blood into gel-containing microtainers and serum iron is determined by the MULTIGENT Iron assay (Abbott Diagnostics, 6K95). Eight mice per group are used and one-way ANOVA with Bonferroni's multiple comparison test is performed to analyze the statistical differences between the experimental groups.
# Table 6 Efficacy of Fpn inhibitors tested in the naïve mouse hypoferremia model. Serum iron reduction induced by selected ferroportin inhibitors dosed p.o. in naïve WT C57BL/6 mice at 10, 30 and 100 mg/kg. Relative serum iron reduction at 3 h after dosing was calculated by subtracting the average of serum iron values of animals dosed with the Fpn inhibitor from that of vehicle-treated animals. The difference in average serum iron values between vehicle and compound treated groups was then divided by the average of serum iron of the vehicle control group and listed as percentage.
compound,measurement,setting,value
O=C(NCc1ncccc1F)c1csc(CCNCCc2nc3ccccc3[nH]2)n1 [Example Compound No. 94],"Correction of elevated serum iron, in words","[1]; b2m−/− mice, 50 mg/kg p.o., 3 h",corrected the elevated serum iron to the levels observed in WT controls
same,Serum Iron Reduction (%),[1]; female ♀,47%
same,Serum Iron Reduction (%),[1]; male ♂,67%
O=C(NCc1ncccc1F)c1coc(CCNCc2nc3ccccc3[nH]2)n1 [Example Compound No. 126],Fpn Degradation (120 min.),ferroportin (Fpn),+
same,Fpn Ubiquitination (10 min.),ferroportin (Fpn),+/−
O=C(NCc1ncccc1F)c1coc(CCNCCc2nc3ccccc3[nH]2)n1 [Example Compound No. 127],Decrease in RDW by 20/60 mg/kg compound,Hbb th3/+ mice; 20 mg/kg twice daily for 20-46 days,19%
same,Correction of anemia at day 20-48 by 20/60 mg/kg,Hbb th3/+ mice; 20 mg/kg twice daily,12 g/L
same,Decrease in serum iron by 20/60 mg/kg compound,Hbb th3/+ mice; 20 mg/kg,68%
same,Decrease in RDW by 20/60 mg/kg compound,Hbb th3/+ mice; 60 mg/kg twice daily for 20-46 days,25%
same,Correction of anemia at day 20-48 by 20/60 mg/kg,Hbb th3/+ mice; 60 mg/kg twice daily,20 g/L
same,Decrease in serum iron by 20/60 mg/kg compound,Hbb th3/+ mice; 60 mg/kg,81%
O=C(NCc1ncccc1F)c1coc(CCNCCc2nc3ccccc3[nH]2)n1 [SP236-FB-P1],solubility,"[2]; aqueous with cosolvent or surfactant or cyclodextrin, 2-propanol-water 1:3",39 to 47 mg/mL
same,solubility,"[2]; aqueous with cosolvent or surfactant or cyclodextrin, Methanol-water 1:1",> 100 mg/mL
same,solubility,"[2]; organic solvent or mixture, 2-Propanol",80 to 120 mg/mL
same,solubility,"[2]; organic solvent or mixture, Acetonitrile",> 200 mg/mL
same,solubility,"[2]; organic solvent or mixture, DMSO",> 100 mg/mL
same,solubility,"[2]; organic solvent or mixture, Dioxane",> 100 mg/mL
same,solubility,"[2]; organic solvent or mixture, Ethanol",> 100 mg/mL
same,solubility,"[2]; organic solvent or mixture, Ethyl acetate",> 100 mg/mL
same,solubility,"[2]; organic solvent or mixture, Ethyl acetate-cyclohexane 3:1",5 to 7 mg/mL
same,solubility,"[2]; organic solvent or mixture, Heptane",< 1 mg/mL
same,solubility,"[2]; organic solvent or mixture, Methanol",> 200 mg/mL
same,solubility,"[2]; organic solvent or mixture, THF",> 200 mg/mL
same,solubility,"[2]; organic solvent or mixture, THF-heptane 3:1",> 200 mg/mL
same,solubility,[2]; Water,~15 mg/mL
"CC[C@H](C)[C@@H]1NC(=O)[C@@H](NC(=O)[C@@H](NC(=O)[C@@H]2CCCN2C(=O)[C@H](Cc2ccccc2)NC(=O)[C@H](Cc2c[nH]cn2)NC(=O)[C@@H](NC(=O)[C@@H](N)CC(=O)O)[C@@H](C)O)[C@@H](C)CC)CSSC[C@@H](C(=O)N[C@@H](CCCCN)C(=O)N[C@H](C(=O)O)[C@@H](C)O)NC(=O)[C@@H]2CSSC[C@@H]3NC(=O)[C@@H]4CSSC[C@H](NC(=O)[C@H](Cc5ccccc5)NC1=O)C(=O)N[C@@H](CSSC[C@H](NC(=O)[C@H](CCCCN)NC(=O)[C@H](CO)NC(=O)[C@H](CCCNC(=N)N)NC(=O)[C@H](Cc1c[nH]cn1)NC3=O)C(=O)NCC(=O)N[C@@H](CCSC)C(=O)N2)C(=O)NCC(=O)N4 [hepcidin, reference compound]",Fpn Degradation (120 min.),ferroportin (Fpn),+
same,Fpn Ubiquitination (10 min.),ferroportin (Fpn),+
same,Reduction of serum iron levels from the vehicle control,naïve WT C57BL/6 mice,40-50%
